Reference: the supplement of paper PMC3493320

Test system: NCI-H295R
Experiment: IC50 (antiproliferative, ATP content)
Settings: 48 h
Summary of the method: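 In 1536-well plates, 1500 adrenocortical carcinoma cells per well were grown overnight in serum-free, ITS-supplemented DMEM before compounds were pin-transferred at 8 final concentrations (0.6 nM to 46 µM). After 48 h at 37 °C and 5% CO2, CellTiter-Glo luminescence was read following 20 min at room temperature and normalised to vehicle and positive-control wells. IC50 values came from logistic curve fits, with compounds lacking any concentration response listed as above the top dose.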

Row | SMILES | IC50
1 | O=C(N[C@@H](CO)C(N[C@H](C(N[C@H](COC(C)(C)C)C(N[C@@H](CC(C)C)C(N[C@@H](CCCNC(N)=N)C(N6[C@H]([C@@](NNC(N)=O)=O)CCC6)=O)=O)=O)=O)CC4=CC=C(O)C=C4)=O)[C@@H](NC([C@@H](N[C@@]([C@@H](N5)CCC5=O)=O)CC3=CNC=N3)=O)CC1=CNC2=C1C=CC=C2.O=C(C)O | > 46 µM
2 | C[C@H]1CC[C@]2(NC1)O[C@H]1C[C@H]3[C@@H]4CC[C@H]5C[C@@H](O)CC[C@]5(C)[C@H]4CC[C@]3(C)[C@H]1[C@@H]2C.Cl | > 46 µM
3 | CC(C)NCC(O)c1ccc(N)c(C#N)c1 (stereo not given) | > 46 µM
4 | CC(=O)OC[C@H]2O[C@@H](N1\N=C/C(=O)NC1=O)[C@H](OC(C)=O)[C@@H]2OC(C)=O | > 46 µM
5 | NCc1cccnc1 | > 46 µM
6 | CNC(=O)Oc1cccc2ccccc12 | > 46 µM
7 | C[N+]1(CCC(C(N)=O)(c2ccccc2)c2ccccc2)CCCCC1.[Br-] | > 46 µM
8 | CC(=O)Oc1c(C)cc(OCC(O)CNC(C)C)c(C)c1C (stereo not given) | > 46 µM
9 | C#C[C@]1(O)CC[C@H]2[C@@H]3CCC4=CC(=O)CCC4=C3C=C[C@@]21CC | > 46 µM
10 | COc1ccc(S(=O)(=O)Nc2nnc(CC(C)C)s2)cc1 | > 46 µM
11 | CCCCCCCCCCCCCCCCCC[N+](C)(C)CCC[Si](OC)(OC)OC.[Cl-] | > 46 µM
12 | Clc1ccccc1Cl | > 46 µM
13 | Cc1cc(C(=O)O)c(C)n1-c1cccc(C(=O)O)c1.O=C1C[C@@H]2OCC=C3CN4CC[C@]56c7ccccc7N1[C@H]5[C@H]2[C@H]3C[C@H]46 | > 46 µM
14 | C[C@]12C[C@H]3S[C@H]3C[C@@H]1CC[C@@H]1[C@@H]2CC[C@]2(C)[C@@H](O)CC[C@@H]12 | > 46 µM
15 | NS(=O)(=O)c1ccc(Cl)c(S(N)(=O)=O)c1 | > 46 µM
16 | COc1ccc(CN(CCN(C)C)c2ncccn2)cc1.Cl | > 46 µM
17 | C[C@]12CCC(=O)C(O)=C1CC[C@@H]1[C@@H]2CC[C@]2(C)C(=O)CC[C@@H]12 | > 46 µM
18 | S=C=S | > 46 µM
19 | C[C@]12N[C@H](Cc3ccccc31)c1ccccc12.O=C(O)/C=C\C(=O)O | > 46 µM
20 | O=C(C)N(CC4)CCN4C(C=C5)=CC=C5OC[C@]2([H])O[C@@](OC2)(CN3C=NC=C3)[C@@]1=CC=C(Cl)C=C1Cl | > 46 µM
21 | C[C@H]1CCC[C@H](O)CCCCCc2cc(O)cc(O)c2C(=O)O1 | > 46 µM
22 | CC(=O)Nc1cc([As](=O)(O)O)ccc1O | > 46 µM
23 | CNC1=Nc2ccc(Cl)cc2C(c2ccccc2)=[N+]([O-])C1 | > 46 µM

Row | SMILES | IC50
24 | O=C(O)C(Cl)Cl | > 46 µM
25 | C#CCN[C@@H]1CCc2ccccc21.CS(=O)(=O)O | > 46 µM
26 | CC(C)CCCC(C)CCCC(C)CCCCC(C)CCCC(C)CCCC(C)C (stereo not given) | > 46 µM
27 | N[C@@H](CSSC[C@H](N)C(=O)O)C(=O)O | > 46 µM
28 | CC(=O)Nc1c(I)c(C(=O)[O-])c(I)c(N(C)C(C)=O)c1I.[Na+] | > 46 µM
29 | COc1ccc(CC2c3cc(OC)c(OC)cc3CC[N+]2(C)CCC(=O)OCCCCCOC(=O)CC[N+]2(C)CCc3cc(OC)c(OC)cc3C2Cc2ccc(OC)c(OC)c2)cc1OC.O=S(=O)([O-])c1ccccc1.O=S(=O)([O-])c1ccccc1 (stereo not given) | > 46 µM
30 | CN1CCC(Nc2ncc3ncnc(Nc4ccc(F)c(Cl)c4)c3n2)CC1.Cl.Cl | > 46 µM
31 | C[C@@H]1C[C@H]2[C@@H]3CCC4=CC(=O)C=C[C@]4(C)[C@@]3(F)C(O)C[C@]2(C)[C@H]1C(=O)CO (stereo not given in full) | > 46 µM
32 | CCC1OC(=O)C[C@@H](O)[C@H](C)[C@@H](O[C@@H]2O[C@H](C)C[C@H](N(C)C)[C@H]2O)[C@@H](CC=O)C[C@@H](C)C(=O)/C=C/[C@]2(C)OC2C1C (stereo not given in full) | > 46 µM
33 | CC(C)(N)Cc1ccc(Cl)cc1.Cl | > 46 µM
34 | CC(C)(S)[C@@H](N)C(=O)O | > 46 µM
35 | OCCOc1ccccc1 | > 46 µM
36 | CCc1cn([C@H]2C[C@H](O)[C@@H](CO)O2)c(=O)[nH]c1=O | > 46 µM
37 | CN(C)C(=N)NC(=N)N.Cl | > 46 µM
38 | CC1=C(/C=C/C(C)=C/C=C/C(C)=C/C=C/C=C(C)/C=C/C=C(C)/C=C/C2=C(C)CCCC2(C)C)C(C)(C)CCC1 | > 46 µM
39 | C[C@H](CCC(=O)O)[C@H]1CC[C@H]2[C@@H]3C(=O)C[C@@H]4CC(=O)CC[C@]4(C)[C@H]3CC(=O)[C@]12C | > 46 µM
40 | Nc1nc(N)nc(NC2CC2)n1 | > 46 µM
41 | CC1C(=O)CC2C3(C)CCC2(C(C)C(=O)O)C(=O)C13 (stereo not given) | > 46 µM
42 | O=C(Cn1ccnc1[N+](=O)[O-])NCCO | > 46 µM
43 | NC[C@H]1O[C@H](O[C@H]2[C@H](O[C@@H]3O[C@H](CO)[C@@H](O)[C@H]3O)C(O)[C@H](N)C[C@@H]2N)[C@H](N)[C@@H](O)[C@@H]1O.O=S(=O)(O)O (stereo not given in full) | > 46 µM
44 | Nc1cc(c(cc1S(=O)(N)=O)S(N)(=O)=O)C(/Cl)=C(/Cl)Cl | > 46 µM
45 | CCCC(=O)O[C@]1(C(=O)CO)CC[C@H]2[C@@H]3CCC4=CC(=O)CC[C@]4(C)[C@H]3[C@@H](O)C[C@@]21C | > 46 µM
46 | CCC1(CC)C(=O)NC(=O)NC1=O | > 46 µM

Continued, values first:

Row | IC50 | SMILES
47 | > 46 µM | O=C1NN=C(C2=CC=C(C=C2)N/N=C(C#N)/C#N)[C@@H](C1)C
48 | > 46 µM | O=C(O)/C=C/c1ccccc1
49 | > 46 µM | CC[N+](C)(CC)CCOC(=O)C(O)(c1ccccc1)C1CCCCC1.[Br-] (stereo not given)
50 | > 46 µM | N=C(N)N/N=C1/C=C/C(C=C1)=N\NC(N)=S
51 | > 46 µM | COc1ccc(O)cc1
52 | > 46 µM | O=C(Nc1ccc([N+](=O)[O-])cc1)Nc1ccc([N+](=O)[O-])cc1
53 | > 46 µM | CCN(CC)CCOC(=O)C(c1ccccc1)C1CCCCC1.Cl (stereo not given)
54 | > 46 µM | Oc1ccc(OCc2ccccc2)cc1
55 | > 46 µM | CC(CNC1CCCCC1)OC(=O)c1ccccc1.Cl (stereo not given)
56 | > 46 µM | O=C(O)Cc1nn(Cc2ccc(Br)cc2F)c(=O)c2ccccc12
57 | > 46 µM | COc1ccc(C(=O)/C(Br)=C\C(=O)O)cc1
58 | > 46 µM | CN(C(=O)c1c(O)c2ccccc2n(C)c1=O)c1ccccc1
59 | > 46 µM | CC(C)(Oc1ccc(C2CC2(Cl)Cl)cc1)C(=O)O (stereo not given)
60 | > 46 µM | CC(C)(C)C(=O)OCOC(=O)[C@@H]1N2C(=O)[C@@H](NC(=O)[C@H](N)c3ccccc3)[C@H]2SC1(C)C
61 | > 46 µM | CC(C)NCC(O)COc1cccc2[nH]ccc12 (stereo not given)
62 | > 46 µM | CCCc1c(OCCCCc2nnn[nH]2)ccc(C(C)=O)c1O
63 | > 46 µM | CCSc1ccc2c(c1)N(CCCN1CCN(C)CC1)c1ccccc1S2.O=C(O)CC(O)C(=O)O.O=C(O)CC(O)C(=O)O
64 | > 46 µM | CCCCCC(C=O)=Cc1ccccc1
65 | > 46 µM | NCCCC[C@H](N[C@@H](CCc1ccccc1)C(=O)O)C(=O)N1CCC[C@H]1C(=O)O.O.O
66 | > 46 µM | CNCCC(Oc1ccccc1OC)c1ccccc1 (stereo not given)
67 | > 46 µM | O=[C@@](N[C@@H]([C@@](O)=O)CC2=CC=CC=C2)[C@@H]1CC[C@@H]([C@H](C)C)CC1
68 | > 46 µM | O=C(CCCN1CCC(O)(c2ccc(Cl)cc2)CC1)c1ccc(F)cc1
69 | > 46 µM | Cl.OC(CCN1CCCCC1)(c1ccccc1)C1CC2C=CC1C2 (stereo not given)
70 | > 46 µM | COc1ccc(C(=O)c2ccc(C)cc2)c(O)c1
